Assay results from US20130266665A1, “NANO[…] DISEASE THERAPY” (priority 2012, published 2013).

Legend:
Format in all cases: cell-based, human
OVCAR5-CisR cells [1] = experiment: Resistance to cisplatin of OVCAR5-CisR cells versus parental OVCAR5; conditions: OVCAR5-CisR vs OVCAR5
Description: (§1) SKOV3 (American Type Culture Collection; Manassas, Va.) and OVCAR5 cells were maintained in Dulbecco's Modified Eagle's Medium supplemented with about 10% fetal bovine serum. SKOV3-CisR and OVCAR5-CisR cells were established by exposing the parental SKOV3 and OVCAR5 cell lines, respectively, to increasing concentrations of cisplatin over 12 months. OVCAR5-CisR cells are about 20- and SKOV3-CisR cells are about 8-fold more resistant to cisplatin compared to their syngeneic cisplatin sensitive counterparts. Cells were grown at about 37° C. in a humidified atmosphere containing about 5% CO2 and about 95% air.

SKOV3-CisR cells = experiment: Resistance to cisplatin of SKOV3-CisR cells versus parental SKOV3; conditions: SKOV3-CisR vs SKOV3
Description: as §1

OVCAR5-CisR cells [2] = experiment: AFM cell stiffness (Young's modulus, peak indentation depth) of cisplatin-resistant OVCAR5-CisR cells
Description: as §1
(§2) Cells were treated with about 1 or about 5 μg/mL cisplatin (Sigma-Aldrich, St. […]
(§3) A protocol was established to exclude unhealthy or apoptotic cells from measurements by staining cells with AnnexinV (Sigma-Aldrich) as an indicator of apoptosis. Stained cells are dead or apoptotic, and typically float away and are no longer attached to a surface. Cells that stained positive for AnnexinV were excluded from AFM analysis. Measurements were conducted using a Catalyst AFM (Bruker Instruments, Santa Barbara, Calif.) with a combined inverted optical/confocal microscope (Zeiss Corp., Thornwood, N.Y.). This combination permits lateral positioning of an AFM tip over the cell center with submicron precision. AFM images and mechanical measurements were collected in contact mode using sharpened silicon nitride cantilevers with experimentally determined spring constants of about 0.02 N/m and a tip radius of less than about 20 nm. Mechanical measurements were obtained at about 37° C. with force measurements recorded at a pulling rate of about 1 Hz. Force-displacement curves were recorded for determination of Young's modulus values. Conversion of force-displacement curves to force-indentation curves allows the determination of the local cell surface elasticity or stiffness (Young's modulus, E). The measurement outcomes include averaged E values. Nanoscope files were converted to Igor. 6.0 (Wavemetrix) and used to generate two-dimensional (2D) stiffness matrix of the cell populations, allowing more precise determination of localized cell stiffness. AFM measurements were obtained in at least 60 cells in three different experiments. The AFM tip was precisely positioned (within micron range) on top of the nucleus using motorized stage and inverted optical view of the combined confocal-AFM microscope.
(§4) Data were expressed as mean±standard error of mean (SEM). Statistical significance was identified by Student's t-test or one-way analysis of variance (Origin 8.0, OriginLab Corporation, Northmpton, Mass.) for the difference among treated pairs.

OVCAR5 cells = experiment: AFM cell stiffness (Young's modulus, peak indentation depth) of cisplatin-sensitive OVCAR5 cells; conditions: for Young's modulus E (mean±SEM), peak 2 / Young's modulus E (mean±SEM), peak 1: about 24 hours
Description: as §1, §2, §3, §4

[3] = about 5 μM cytochalasin D alone

Row | Compound | fold more resistant to cisplatin compared to syngeneic cisplatin sensitive counterpart (OVCAR5-CisR cells [1]) | fold more resistant to cisplatin compared to syngeneic cisplatin sensitive counterpart (SKOV3-CisR cells) | difference in cell stiffness between untreated and cisplatin-treated cells (OVCAR5-CisR cells [2]; cisplatin 5 μg/mL, P=0.45) | localized peak indentation (OVCAR5-CisR cells [2]; cisplatin 5 μg/mL, untreated 0.5±0.06 μm) | Young's modulus E, peak 1 (OVCAR5-CisR cells [2]; cisplatin 5 μg/mL, untreated 1.0±0.03 kPa) | Young's modulus E, peak 2 (OVCAR5-CisR cells [2]; cisplatin 5 μg/mL, untreated 1.84±0.1 kPa) | Young's modulus E (mean±SEM), peak 2 (OVCAR5 cells; about 1 μg/mL cisplatin) | Young's modulus E (mean±SEM), peak 1 (OVCAR5 cells; about 1 μg/mL cisplatin, untreated E=0.64±0.03 kPa) | Young's modulus E (mean±SEM), peak 1 (OVCAR5 cells; about 5 μg/mL cisplatin) | Young's modulus E (mean±SEM), peak 2 (OVCAR5 cells; about 5 μg/mL cisplatin) | peak indentation depth (OVCAR5 cells; cisplatin 1 μg/mL, untreated 1.2±0.04 μm) | peak indentation depth (OVCAR5 cells; cisplatin 5 μg/mL) | Young's modulus E (OVCAR5-CisR cells [2]; [3]) | Young's modulus E (OVCAR5 cells; [3])
1 | N.N.[Cl][Pt][Cl] [cisplatin, cis-diamminedichloridoplatinum(II)] | 20 fold | 8 fold | no significant difference | 0.5±0.04 μm | 0.97±0.01 kPa | 1.88±0.05 kPa | 1.23±0.04 kPa | 0.53±0.01 kPa | 0.65±0.01 kPa | 1.28±0.06 kPa | 0.7±0.03 μm | 0.5±0.03 μm |  | 
2 | C=C1[C@@H](C)[C@H]2[C@H](Cc3ccccc3)NC(=O)[C@]23[C@H](OC(C)=O)/C=C/[C@@](C)(O)C(=O)[C@@H](C)C/C=C/[C@H]3[C@@H]1O [cytochalasin D] |  |  |  |  |  |  |  |  |  |  |  |  | 0.45±0.01 kPa | 0.34±0.02 kPa
